Laboratory results reported in US20240197666A1, “DITERPENOID COMPOUNDS THAT ACT ON PROTEIN KINASE C (PKC)” (K-Gen Therapeutics, Inc., priority 2021, published 2024).
pIC50, pKi: −log10 of the molar value. Read-outs that look alike come from different tables or passages of the source.

Columns and labels:
A549 cell line = experiment: Proliferation of A549 (CellTiter Glo); type: cell-based; details: Homo sapiens, read-out: IC50 μM (A549 Cell Line)
Experimental: (§1) The diterpenoid compounds were tested in A549, a non-small cell lung cancer cell line harboring a K-Ras activating mutation. Briefly, A549 cells at a density of 1,000 cells/well were seeded in 96-well plates and incubated at 37° C. for 24 hours. A series of different concentrations of compound stocks (500×) were prepared by 3-fold serial dilution in DMSO. These compounds were further diluted in culture media and then added to cells so that the final DMSO concentration was not exceeding 0.25%. After 96 hours of incubation, 50 μL of CellTiter Glo reagent (Promega) was added to each well and luminescence was measured after 10 minutes using EnVision (PerkinElmer). Luminescence from cells treated with DMSO alone was set as Max and % of inhibition was calculated as follows: Inhibition %=(Max-Sample value)/Max×100. Data was analyzed using XL-fit software (ID Business Solutions Ltd.) and IC50, relative IC50, and % of top inhibition was calculated. Some of the compounds in this disclosure were very potent in blocking proliferation of A549 lung cancer cells at low nM range. In addition, potency of inhibiting A549 proliferation correlated well with its binding affinity to PKCs for this series of compounds. In other words, higher affinity binders had stronger inhibitory effects on A549 proliferation. This further support the notion that activation, rather than inhibition, of certain PKC isoforms is required to block proliferation of cancer cells, some of which may harbor K-Ras mutations. This is in sharp contrast to previous literature and common belief that inhibition of PKC is necessary to block cancer cell growth (Kang, 2014, New Journal of Science, 2014:1-36). Data presented here is in agreement with recent findings that many loss-of-function but not gain-of-function mutations of PKC isoforms have been identified in many human cancers (Antal et al., 2015, Cell, 160:489-502).

[1] = target: T1, C1b domain of human PKD1 (PKCμ) (Homo sapiens, UniProt Q15139); experiment: Competitive 3H-PDBu binding assay, C1b domain of PKD1 (PKCμ); details: 3H-PDBu competition
T1 construct: Genes encoding C1b domains of human PKCα, δ, ε, θ, and PKD1 (PKCμ) were synthesized; made in house; host or cells: E. coli BL21(DE3)
T1 sequence (Q15139 270-320 limits assumed): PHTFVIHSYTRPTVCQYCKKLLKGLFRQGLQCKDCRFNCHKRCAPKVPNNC
Experimental: (§2) Compounds described in this disclosure were tested for binding affinity to C1b domain of PKC isoforms. Compound binding affinity to C1b domain of PKC isoforms was derived from competitive binding assay using radioactive tracer ^3H-PDBu and recombinant GST-C1b or full-length of human PKC proteins based on modified procedures from Methods in Molecular Biology, vol.
(§3) Genes encoding C1b domains of human PKCα, δ, ε, θ, and PKD1 (PKCμ) were synthesized and inserted into pGEX-2TK or pGEX-4T1 vectors for expression and production of GST-C1b proteins in E. coli BL21(DE3) via IPTG induction. The target proteins were purified by glutathione sepharose 4B and followed by ion exchange chromatography if needed to achieve purity >70%. Aliquots of the purified proteins were stored at −80 degree for binding assay (storage buffer: 20 mM Tris pH 8.0, 200 mM NaCl, 10% glycerol, 1 mM DTT).
(§4) The plate was incubated at 37° C. on a shaker at 300 rpm for 10 minutes and then put on ice for 20 minutes. […] The bottom of the filter plate was sealed and 50 μL of MicroScint-20 (PerkinElmer) cocktail was added to each well. ^3H-PDBu trapped in each well was counted using PerkinElmer MicroBeta2 Reader. Data were analyzed using GraphPad Prism5 with the model “log(inhibitor) vs. response-variable slope” to fit the IC50, and then IC50 was transformed to Ki using Cheng-Prusoff equation: Ki=IC50/(1+added radio ligand/Kd). Kd is the binding affinity of each protein preparation to ^3H-PDBu, determined experimentally.

Mino (Lymphoma) = experiment: Proliferation of Mino; type: cell-based
Experimental: as §1
(§5) The compounds in this disclosure were tested for their potency in blocking proliferation of a few other cancer cells lines, including K-Ras mutant pancreatic cell lines Panc2.13 and KP-4, leukemia cell line HL-60, and lymphoma cell lines Namalwa and Mino. Similar procedures as in Example 67 were followed. Initial cell numbers seeded in 96-well plates were different for different cell lines: 3000 cells/well for Panc2.13; 800-1000 cells/well for KP-4; 5000 cells/well for HL-60; 5000-10000 cells/well for Namalwa and Mino. A ratio of (IC50 of K101)/(IC50 of compound) (data in parenthesis in Table 5) was used to normalize the compound potency from different assay batches to a common comparator K101.

Namalwa (Lymphoma) = experiment: Proliferation of Namalwa; type: cell-based; details: for pIC50: read-out: IC50 Namalwa (Lymphoma)
Experimental: as §1, §5

C1b domain of human PKCε = target: T2, C1b domain of human PKCε (Homo sapiens, UniProt Q02156); experiment: biochemical; type: binding; details: 3H-PDBu competition
T2 construct: Genes encoding C1b domains of human PKCα, δ, ε, θ, and PKD1 (PKCμ) were synthesized; made in house; host or cells: E. coli BL21(DE3)
T2 sequence (Q02156 242-292 limits assumed): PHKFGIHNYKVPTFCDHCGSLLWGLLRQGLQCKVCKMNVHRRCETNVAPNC
Experimental: as §2, §3, §4

[2] = tested on: NFκB-driven transcription in HeLa-NFκB luciferase reporter cell line; experiment: NFκB luciferase reporter assay; details: Homo sapiens, HeLa, 16 h, read-out: NFκB-luc HeLa cells EC50 (μM)
HL-60 (Leukemia) = experiment: Proliferation of HL-60; type: cell-based
Experimental: as §1, §5

C1b domain of human PKCδ = target: T3, C1b domain of human PKCδ (Homo sapiens, UniProt Q05655); experiment: biochemical; type: binding; details: 3H-PDBu competition
T3 construct: Genes encoding C1b domains of human PKCα, δ, ε, θ, and PKD1 (PKCμ) were synthesized; made in house; host or cells: E. coli BL21(DE3)
T3 sequence (Q05655 230-280 limits assumed): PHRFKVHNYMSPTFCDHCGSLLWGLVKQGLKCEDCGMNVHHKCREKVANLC
Experimental: as §2, §3, §4

Hela cells = experiment: In vitro scratch wound healing assay; type: cell-based; details: 24h
Experimental: Scratch wound healing assay creates a gap by scratching a confluent monolayer of cells to mimic a wound and then measures the ability of cells to fill up the gap (wound) in the presence of DMSO or test compounds. 1.2-1.5×10^5 Hela cells in 1 mL media RPMI-1640 with 10% FBS were seeded in 24-well plates. Cells were starved for overnight in the same media without FBS when cells became confluent. After starvation, a scratch was made in the middle of the well and the plates were washed three times to remove detached cells. DMSO or different concentrations of compounds were diluted and added to the cells. The assay plates were put into Incucyte S3 and scanned with 4× scanner setting regularly. The imaging results were exported and the wound area was analyzed by ImageJ. Wound healing or closure was calculated by the following formula: wound healing %=(wound area at 0h−wound area at 24h)/wound area 0h*100%. Relative wound healing was calculated by dividing wound healing % of compound treatment to that of DMSO*100%.

| Structure (SMILES) | IC50 (A549 cell line; A549, 96 h) | pKi [1] | pKi (C1b domain of human PKCε) | pKi (C1b domain of human PKCδ) | further results |
| --- | --- | --- | --- | --- | --- |
| CC1=C[C@H]2[C@@]3(O)[C@H](C)C[C@]4(OC(=O)[C@@H](O)Cc5ccccc5)[C@H]([C@@H]3C=C(CO)C[C@]2(O)C1=O)C4(C)C | 0.2 to 0.6 µM | 7.52 to 8.00 |  |  |  |
| CC1=C[C@H]2[C@@]3(O)[C@H](C)C[C@]4(OC(=O)Cc5ccccc5)[C@H]([C@@H]3C=C(CO)C[C@]2(O)C1=O)C4(C)C |  |  | 7.52 to 8.00 |  | ratio (IC50 of K101)/(IC50 of compound) Mino (Mino (Lymphoma)): 15.6; pIC50 (Mino (Lymphoma); Homo sapiens, MINO; read-out: IC50 Mino (Lymphoma)): 8.00 to 9.00; ratio (IC50 of K101)/(IC50 of compound) Namalwa (Namalwa (Lymphoma)): 3.29; pIC50 (Namalwa (Lymphoma)): 7.52 to 8.00; EC50 [2]: 0.03 to 0.06 µM; IC50 (A549 cell line; A549, 96 hours, CellTiter Glo): 0.03 to 0.06 µM; ratio (IC50 of K101)/(IC50 of compound) HL-60 (HL-60 (Leukemia)): 18; pIC50 (HL-60 (Leukemia); Homo sapiens, HL-60; read-out: IC50 HL-60 (Leukemia)): 7.52 to 8.00 |
| CC1=C[C@H]2[C@@]3(O)[C@H](C)C[C@]4(OC(=O)[C@@H](N)CCCCCCCCc5ccccc5)[C@H]([C@@H]3C=C(CO)C[C@]2(O)C1=O)C4(C)C | 0.001 to 0.01 µM |  |  | 7.52 to 8.00 |  |
| CC1=C[C@H]2[C@@]3(O)[C@H](C)C[C@]4(OC(=O)CCc5scnc5C)[C@H]([C@@H]3C=C(CO)C[C@]2(O)C1=O)C4(C)C | 0.2 to 0.6 µM | 7.52 to 8.00 |  |  |  |
| CC1=C[C@H]2[C@@]3(O)[C@H](C)C[C@]4(OC(=O)[C@@H](N)C(C)(C)c5ccc(C(F)(F)F)cc5)[C@H]([C@@H]3C=C(CO)C[C@]2(O)C1=O)C4(C)C | 0.03 to 0.06 µM |  | 7.52 to 8.00 |  | ratio (IC50 of K101)/(IC50 of compound) Mino (Mino (Lymphoma)): 15.7; pIC50 (Mino (Lymphoma); Homo sapiens, MINO, read-out: IC50 Mino (Lymphoma)): 8.00 to 9.00; ratio (IC50 of K101)/(IC50 of compound) Namalwa (Namalwa (Lymphoma)): 3.5; pIC50 (Namalwa (Lymphoma)): 7.52 to 8.00; EC50 [2]: 0.06 to 0.1 µM; ratio (IC50 of K101)/(IC50 of compound) HL-60 (HL-60 (Leukemia)): 12; pIC50 (HL-60 (Leukemia); Homo sapiens, HL-60, read-out: IC50 HL-60 (Leukemia)): 7.52 to 8.00; Relative wound healing to control (%) (Hela cells; 20 nM): 213%; Relative wound healing to control (%) (Hela cells; 60 nM): 134%; Relative wound healing to control (%) (Hela cells; 200 nM): 201% |
| CC1=C[C@H]2[C@@]3(O)[C@H](C)C[C@]4(OC(=O)[C@H](N)CCCCCCc5ccc(C(F)(F)F)cc5)[C@H]([C@@H]3C=C(CO)C[C@]2(O)C1=O)C4(C)C | 0.06 to 0.1 µM | 7.52 to 8.00 | 7.00 to 7.22 |  |  |
| CC1=C[C@H]2[C@@]3(O)[C@H](C)C[C@]4(OC(=O)C[C@H](N)c5ccccc5)[C@H]([C@@H]3C=C(CO)C[C@]2(O)C1=O)C4(C)C | 1 to 2 µM | 7.52 to 8.00 |  |  |  |
| CC1=C[C@H]2[C@@]3(O)[C@H](C)C[C@]4(OC(=O)C[C@H](N)Cc5ccccc5)[C@H]([C@@H]3C=C(CO)C[C@]2(O)C1=O)C4(C)C | 1 to 2 µM |  |  | 7.52 to 8.00 |  |
| CC1=C[C@H]2[C@@]3(O)[C@H](C)C[C@]4(OC(=O)[C@@H](N)Cc5c[nH]c6ccccc56)[C@H]([C@@H]3C=C(CO)C[C@]2(O)C1=O)C4(C)C | 10 to 30 µM |  |  | 7.52 to 8.00 |  |
| CC1=C[C@H]2[C@@]3(O)[C@H](C)C[C@]4(OC(=O)C[C@@H](N)Cc5ccccc5)[C@H]([C@@H]3C=C(CO)C[C@]2(O)C1=O)C4(C)C | 1 to 2 µM | 7.52 to 8.00 |  |  |  |
